Experimental data taken from patent publication US9157917B2, “Applications of Indoloindole and Indoloquinoline dyes” (Biosynth AG, priority 2010, dated 2015).

Columns and labels:
[1] = Application of aqueous dye suspensions to PP tubes and PE pellets at different temperatures; type: physicochemical; details: for Fluorescence of PP tubes and PE pellets, comparison between dyes: 22° C., 37° C., 90° C.
Description: The application of dye to plastic can be improved by increasing the temperature. Aqueous suspensions of Aldol™ 470, 495, 515 and 518 dyes in PP tubes containing PE pellets were incubated at three different temperatures (22° C., 37° C., and 90° C.). The resulting fluorescence of PP tubes and PE pellets was much stronger after incubation at 90° C. for 5 hours than after 24 hours incubation at 37° C. or 22° C. Incubation at 37° C. led to more fluorescence than incubation at 22° C. Fluorescence after incubation at 22° C. was very weak, except for PE pellets incubated in the presence of Aldol™ 495 dye and Aldol™ 515 dye.

[2] = Release of dyes from precursors through heat in PP tubes containing PE pellets; type: physicochemical; details: PP tubes and PE pellets (emptied and flushed with water) after heating for 40 min at 90° C.
Description: As a further example the release of Aldol™ 470-, 495-, and 515 dyes from various Aldol™ acetate precursors through heat is given: The compounds were incubated at room temperature and at 90° C. for 40 min in PP tubes containing PE pellets. […] Whereas for all tubes at room temperature neither coloration nor fluorescence was detected, the Aldol™ acetates but not the Aldol™ galactosides were instable at 90° C. and led to fluorescence of the PP and PE host (Table 2).

[3] = test system: phosphatase coupled goat anti rabbit antibody; assay: Dot blot on nitrocellulose membrane; type: biochemical; details: 0.4 mM in assay buffer pH 9.5
Description: Western Blotting is a routine technique for protein analysis. A widely used, cost-effective and simple way for signal detection is the reaction of a chromogenic phosphatase indicator with alkaline phosphatase coupled to the secondary antibody, yielding a colored band or spot. The IO/IQ indicators offer an easy way for fluorescent and chromogenic western blotting based on the same principle as the common chromogenic western blotting, the only difference being the phosphatase indicator. […] In addition, after longer incubation the dots were also clearly identified under white light through their yellow color. Thus, IO/IQ indicators offer a way of performing chromogenic and fluorogenic blotting assay at the same time.
0.16 μg of beta-galactosidase in 4 μl of phosphate buffer was spotted on a nitrocellulose membrane. The membrane was dried for 15 min and then blocked in TBS-T (20 mM Tris-HCl, 150 mM NaCl, 0.05% Tween20, pH 7.5) with 5% BSA for one hour. Then the membrane was incubated with a rabbit anti-beta-galactosidase antibody in TBS-T/5% BSA for one hour, washed three times for 5 min in TBS-T, and incubated with a phosphatase coupled goat anti rabbit antibody in TBS-T/5% BSA for one hour. […]

[4] = test system: S. enteritidis; assay: Cultures with paraffin oil overlay
[5] = test system: E. coli; assay: Cultures with paraffin oil overlay
[6] = test system: E. coli; assay: Fluorescence of colonies on membrane filters; type: cell-based; details: Naked nutrient agar, 0.4 mM, 14-16 hours at 37° C.
[7] = Stamping on LDPE film, stability to treatments; type: physicochemical
Description: Three pieces of felt were soaked with ethanol containing 0.5 mM of Aldol™ 470, Aldol™ 495 or Aldol™ 515 dye respectively. A stamp was pressed first on the felt then on a piece of low density polyethylene film. The film was left to dry for 15 minutes and then exposed to various treatments (Table 4).

[8] = Fluorescence of IO dyes in various hosts; type: physicochemical
Description: In this description various IO dyes are given as illustrative examples (Scheme I) but these examples shall not limit the invention in any way. It was discovered that IO/IQ dyes have a strong solvatochromic effect. When, for example, the 470-, 495- and 515-dyes were dissolved in a series of solvents, the fluorescence of the solution was higher the lower the polarity of the solvent was. […] It was also discovered that the fluorescence color might change with the solvent used.

[9] = test system: E. coli; assay: Peptone broth culture in tubes
[10] = molecular target: E. coli beta-galactosidase (Escherichia coli, UniProt P00722)
Description: 100 mM sodium phosphate buffer (pH 7.3) containing 1 mM MgCl2 and 0.5 mM Aldol™ 495 beta-D-galactoside, was distributed into glass, polystyrene and polypropylene tubes (two of each). Purified E. coli beta-galactosidase was added to half of the tubes, the other half serving as negative controls.

[11] = test system: S. enteritidis; assay: Peptone broth culture in tubes
[12] = Excitation and emission spectra of dye in polypropylene; type: physicochemical; details: in polypropylene microtiter plate
Description: The excitation and emission spectra of the Aldol™ 495 dye in PP were measured in a standard plate reader using a polypropylene microtiter plate that has been incubated with broth containing Aldol™ 495 beta-D-galactoside and an E. coli culture. […] The optimal excitation is at 310 nm (FIG. 1).

[13] = test system: various bacterial strains; assay: Nonanoate indicators in buffered peptone water in polystyrene plates; type: cell-based; details: 0.2 mM, polystyrene plate, 37° C., excitation 360 nm, emission 460 nm
Description: Buffered peptone water containing either 0.4 mM Aldol™ 495 nonanoate or 0.2 mM 4-methylumbelliferyl nonanoate was dispensed in a microtiter plate and inoculated with about 700 cfu/ml of various bacterial strains. […] An excitation wavelength of 360 nm was used for both dyes, the emission wavelength was 560 nm for the Aldol™ 495 dye and 460 nm for the 4-methylumbelliferone.

[14] = paraffin oil overlay 0 μl, 16 h
[15] = paraffin oil overlay 0 μl, 21 h
[16] = paraffin oil overlay 0 μl, 40 h
[17] = paraffin oil overlay 50 μl, 16 h
[18] = paraffin oil overlay 50 μl, 21 h
[19] = paraffin oil overlay 50 μl, 40 h
[20] = paraffin oil overlay 300 μl, 16 h
[21] = paraffin oil overlay 300 μl, 21 h
[22] = paraffin oil overlay 300 μl, 40 h

Chain of E. coli beta-galactosidase (P00722 2-1024): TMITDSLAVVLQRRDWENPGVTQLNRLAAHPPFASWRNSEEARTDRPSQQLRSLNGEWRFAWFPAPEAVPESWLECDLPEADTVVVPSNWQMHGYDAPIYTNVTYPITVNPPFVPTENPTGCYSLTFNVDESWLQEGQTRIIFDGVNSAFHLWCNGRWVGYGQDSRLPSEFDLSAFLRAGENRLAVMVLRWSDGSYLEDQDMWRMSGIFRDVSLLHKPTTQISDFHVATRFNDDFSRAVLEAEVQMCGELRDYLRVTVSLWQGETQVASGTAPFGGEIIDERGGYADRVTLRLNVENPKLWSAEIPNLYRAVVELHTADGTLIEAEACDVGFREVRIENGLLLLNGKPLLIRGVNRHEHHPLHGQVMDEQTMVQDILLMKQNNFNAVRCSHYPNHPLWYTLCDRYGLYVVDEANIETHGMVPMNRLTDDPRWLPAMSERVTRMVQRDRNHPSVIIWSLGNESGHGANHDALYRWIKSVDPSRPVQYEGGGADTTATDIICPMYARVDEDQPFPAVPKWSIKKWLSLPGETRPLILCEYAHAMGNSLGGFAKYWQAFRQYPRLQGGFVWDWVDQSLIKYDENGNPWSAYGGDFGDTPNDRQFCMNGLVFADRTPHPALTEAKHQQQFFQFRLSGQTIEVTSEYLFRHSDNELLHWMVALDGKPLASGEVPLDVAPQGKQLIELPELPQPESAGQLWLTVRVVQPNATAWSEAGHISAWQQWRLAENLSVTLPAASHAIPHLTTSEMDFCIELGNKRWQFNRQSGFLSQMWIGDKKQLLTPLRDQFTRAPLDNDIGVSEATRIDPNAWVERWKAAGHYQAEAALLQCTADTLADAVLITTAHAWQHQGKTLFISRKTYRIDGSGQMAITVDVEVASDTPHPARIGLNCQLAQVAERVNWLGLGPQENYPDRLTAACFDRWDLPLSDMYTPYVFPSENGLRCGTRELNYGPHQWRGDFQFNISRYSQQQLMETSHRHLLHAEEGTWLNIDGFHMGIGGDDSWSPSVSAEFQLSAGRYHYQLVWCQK

CN(C)c1ccc(-c2c3n(c4ccccc24)-c2cc(Cl)ccc2C3=O)cc1 [Aldol™ 518 dye]
Fluorescence of PP tubes and PE pellets after 90° C. for 5 hours versus 24 hours at 37° C. or 22° C. [1]: much stronger

CC(=O)Oc1cn(-c2ccccc2C(=O)c2ccc(N(C)C)cc2)c2ccccc12 [Aldol ™ 515 acetate]
Color of tube [2]: Very light orange

COc1ccc(C(=O)c2ccccc2-n2cc(OP(=O)(O)O)c3ccccc32)c(OC)c1 [Aldol™ 470 phosphate]
Fluorescence or coloration of spot of alpha-amylase (negative control) [3]: No fluorescence or coloration

CN(C)c1ccc(C(=O)c2ccccc2-n2cc(O[C@@H]3O[C@H](CO)[C@H](O)[C@H](O)[C@H]3O)c3ccc(Cl)cc32)cc1 [Aldol™ 518 beta-D-galactoside]
Color [4, 14]: Beige | Color [4, 15]: Beige | Color [4, 16]: Beige | Color [4, 17]: Beige | Color [4, 18]: Beige | Color [4, 19]: Beige | Color [4, 20]: Beige | Color [4, 21]: Beige | Color [4, 22]: Beige | Color of tube [2]: No color | Fluorescence of tube [2]: No fluorescence | Color [5, 14]: Red | Color [5, 15]: Red | Color [5, 16]: Red | Color [5, 17]: Red | Color [5, 18]: Red | Color [5, 19]: Red | Color [5, 20]: Red | Color [5, 21]: Red | Color [5, 22]: Red

COc1ccc(C(=O)c2ccccc2-n2cc(NC(=O)[C@H](C)N)c3ccccc32)c(OC)c1 [Aldol™ 470 L-alanine amide]
Fluorescence of E. coli colonies [6]: No fluorescence

CN(C)c1ccc(-c2c3n(c4ccccc24)-c2ccccc2C3=O)cc1 [Aldol™ 515 dye]
Stability of stamping on LDPE ([7]; under the conditions tested, compared with the other dyes): most stable | Fluorescence color ([8]; Acetone): Red | Fluorescence intensity ([8]; Acetone): Medium | Fluorescence color ([8]; Ethanol): Red | Fluorescence intensity ([8]; Ethanol): Weak | Fluorescence color ([8]; Mineral oil): Yellow | Fluorescence color ([8]; Silicon oil): Red | Fluorescence color ([8]; Water): Red | Fluorescence of PP tubes and PE pellets after 90° C. for 5 hours versus 24 hours at 37° C. or 22° C. [1]: much stronger | Fluorescence of PP tubes and PE pellets, comparison between dyes [1]: more fluorescence than Aldol™ 518 dye and Aldol™ 470 dye

Cn1cccc1C(=O)c1ccccc1-n1cc(O[C@@H]2O[C@H](CO)[C@H](O)[C@H](O)[C@H]2O)c2ccc(Cl)cc21 [Aldol™ 495 beta-D-galactoside]
Fluorescence of E. coli colonies [6]: No fluorescence | Color of tube [2]: No color | Fluorescence of tube [2]: No fluorescence | Fluorescence of PP tube under UV light (366 nm) ([9]; E. coli, 0.4 mM in peptone broth, 16 h incubation): Strong green | Fluorescence of glass tube ([9]; E. coli, 0.4 mM in peptone broth, glass test tubes): no fluorescence | Fluorescence of PP tube under UV light (366 nm) ([9]; E. coli, after autoclaving and emptying tube): Strong green | Fluorescence of PP tube under UV light (366 nm) ([9]; E. coli, after washing in dish-washer): Strong green | Stability under autoclaving conditions ([9]; in the medium tested): stable under autoclaving conditions | Color under white light ([10]; 0.5 mM, pH 7.3, glass, polystyrene and polypropylene tubes with beta-galactosidase): red-brown precipitate | Time until new polypropylene tube started to fluoresce after transfer of content ([10]; content of fluorescent PP tube transferred into new PP tube): around 10 minutes | Fluorescence of PP tube under UV light (366 nm) ([11]; 0.4 mM in peptone broth, 16 h incubation): No fluorescence | Fluorescence of glass tube ([11]; 0.4 mM in peptone broth, glass test tubes): no fluorescence | Fluorescence of PP tube under UV light (366 nm) ([11]; after autoclaving and emptying tube): No fluorescence | Fluorescence of PP tube under UV light (366 nm) ([11]; after washing in dish-washer): No fluorescence

COc1ccc(-c2c3n(c4ccccc24)-c2ccccc2C3=O)c(OC)c1 [Aldol™ 470 dye]
Fluorescence of imprint on LDPE film ([7]; After soaking for 18 h in ethanol): No fluorescence | Fluorescence color ([8]; Acetone): Green | Fluorescence intensity ([8]; Acetone): Strong | Fluorescence color ([8]; Ethanol): orange | Fluorescence color ([8]; Mineral oil): Green | Fluorescence intensity ([8]; Mineral oil): Medium | Fluorescence color ([8]; Paraffin oil): Green | Fluorescence intensity ([8]; Paraffin oil): Medium | Fluorescence intensity ([8]; Silicon oil): Weak | Fluorescence of PP tubes and PE pellets after 90° C. for 5 hours versus 24 hours at 37° C. or 22° C. [1]: much stronger

Cn1cccc1-c1c2n(c3ccccc13)-c1cc(Cl)ccc1C2=O [Aldol™ 495 dye]
Fluorescence intensity ([8]; Acetone): Strong | Fluorescence color ([8]; Mineral oil): Green | Fluorescence color ([8]; Paraffin oil): Green | Fluorescence intensity ([8]; Silicon oil): Medium | Fluorescence color ([8]; Water): None | Fluorescence intensity ([8]; Water): None | Emission maximum [12]: 510 nm | Optimal excitation [12]: 310 nm | Fluorescence of PP tubes and PE pellets after 90° C. for 5 hours versus 24 hours at 37° C. or 22° C. [1]: much stronger | Fluorescence of PP tubes and PE pellets, comparison between dyes [1]: more fluorescence than Aldol™ 515 dye

COc1ccc(C(=O)c2ccccc2-n2cc(O[C@@H]3O[C@H](CO)[C@H](O)[C@H](O)[C@H]3O)c3ccccc32)c(OC)c1 [Aldol™ 470 beta-D-galactoside]
Color of tube [2]: No color | Fluorescence of tube [2]: No fluorescence

CC(=O)Oc1cn(-c2ccccc2C(=O)c2cccn2C)c2cc(Cl)ccc12 [Aldol ™ 495 acetate]
Color of tube [2]: Very light green

CCCCCCCCC(=O)Oc1ccc2c(C)cc(=O)oc2c1 [4-methylumbelliferyl nonanoate, reference compound]
Fluorescence of C9 esterase negative strains and sterile control [13]: strong fluorescence

COc1ccc(C(=O)c2ccccc2-n2cc(OC(C)=O)c3ccccc32)c(OC)c1 [Aldol ™ 470 acetate]
Color of tube [2]: Light yellow
